Entries after “also recorded” stand apart in the source; their conditions may differ. Where two headings read alike, the source gives them in different places.
How the values were obtained:
SfMCT [1] = target: T1, SfMCT (Syntrophobacter fumaroxidans, UniProt A0LNN5); assay type: cell-based; settings: for Relative uptake of [14C]L-lactate (in %): WT SfMCT, competitor 1 mM final concentration, normalized to control without competitor; for reduction of [14C]L-lactate uptake / competition with [14C]L-lactate uptake (in words): competitor 1 mM
T1 construct: expressed in transfected cells; host or cells: E. coli JA202 (MC4100 glcA::cat lldP::kan), plasmid pEXT20-SfMCT-3C-10His
T1 sequence (A0LNN5 1-412): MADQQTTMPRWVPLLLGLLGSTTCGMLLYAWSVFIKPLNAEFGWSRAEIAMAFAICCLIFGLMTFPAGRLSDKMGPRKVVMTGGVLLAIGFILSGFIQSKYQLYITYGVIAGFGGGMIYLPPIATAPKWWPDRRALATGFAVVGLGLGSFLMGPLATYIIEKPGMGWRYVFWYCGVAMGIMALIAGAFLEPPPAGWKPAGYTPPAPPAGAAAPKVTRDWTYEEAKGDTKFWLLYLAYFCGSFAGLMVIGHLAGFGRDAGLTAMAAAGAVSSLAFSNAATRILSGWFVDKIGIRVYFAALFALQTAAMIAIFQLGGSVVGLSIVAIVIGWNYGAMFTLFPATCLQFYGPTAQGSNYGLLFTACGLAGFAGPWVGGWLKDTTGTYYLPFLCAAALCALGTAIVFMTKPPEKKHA
Protocol: (§1) The cultures were grown at 37 °C and 180 r.p.m. in an incubator shaker (Multitron, Infors HT). Protein expression was induced at OD600 ~0.5 by addition of IPTG to a final concentration of 0.25 mM. After 4 h, bacteria were pelleted (5,200 × g, 10 min, room temperature) and resuspended in uptake buffer (20 mM Bis-Tris propane-HCl (pH 6.7), 250 mM KCl) to a bacteria density of OD600 12. […] Furthermore, [3-3 H] propionic acid sodium salt ([^3H]propionate, American Radiolabeled Chemicals, specific activity 30 Ci/mmol), n-[2,3-3 H] butyric acid sodium salt ([^3H]butyrate, American Radiolabeled Chemicals, specific activity 120 Ci/mmol), and [1–14 C] pyruvic acid sodium salt ([^14C]pyruvate, specific activity 0.055 Ci/mmol American Radiolabeled Chemicals) were also used for transport experiments. […] Uptake experiments were performed in 2 ml reaction tubes (Eppendorf) at 30 °C under agitation (1,000 r.p.m., Thermomixer compact, Eppendorf). […] Bacteria were immediately pelleted by centrifugation (21,000 × g, 4 min, room temperature) and washed two times with 900 μl stop buffer. Finally, bacteria were lyzed in 50 μl 5% (w/v) sodium dodecylsulfate and transferred into a white 96-well plate (Optiplate, PerkinElmer). 150 µl of scintillation cocktail (MicroScint 40, PerkinElmer) were added before measuring each reaction for 2 min with a scintillation counter (TopCount NXT, PerkinElmer). For data analysis, the signal of the empty vector was subtracted from the transporter signal. […] Cpm values of each experiment were normalized with respect to the determined upper plateau value, i.e., the fitted upper plateau value corresponds to 100%. The arithmetic average of three independent experiments was calculated. Three independent and normalized pH-dependence curves were then averaged. For data analysis Prism6 (GraphPad Software) was used. […] Equal amounts of bacteria expressing SfMCT variants were loaded on 14% SDS/polyacrylamide gels. His-tagged transporters were detected using an anti-His5 (Qiagen, catalogue number 34660, primary antibody) at a dilution of 1:3,000 and a goat anti-mouse IgG (H + L) HRP conjugate antibody (Biorad, catalogue number 172-1011, secondary antibody) at a dilution of 1:2,500.

SfMCT-F335A = target: T2, SfMCT-F335A (Syntrophobacter fumaroxidans, UniProt A0LNN5, F335A); assay: [14C]L-lactate transport competition assay, SfMCT-F335A; assay type: cell-based; settings: competition by 1 mM ACAC
T2 construct: expressed in transfected cells; host or cells: E. coli JA202, pEXT20-SfMCT-3C-10His mutant plasmid
Protocol: The cultures were grown at 37 °C and 180 r.p.m. in an incubator shaker (Multitron, Infors HT). Protein expression was induced at OD600 ~0.5 by addition of IPTG to a final concentration of 0.25 mM. After 4 h, bacteria were pelleted (5,200 × g, 10 min, room temperature) and resuspended in uptake buffer (20 mM Bis-Tris propane-HCl (pH 6.7), 250 mM KCl) to a bacteria density of OD600 12. […] Furthermore, [3-3 H] propionic acid sodium salt ([^3H]propionate, American Radiolabeled Chemicals, specific activity 30 Ci/mmol), n-[2,3-3 H] butyric acid sodium salt ([^3H]butyrate, American Radiolabeled Chemicals, specific activity 120 Ci/mmol), and [1–14 C] pyruvic acid sodium salt ([^14C]pyruvate, specific activity 0.055 Ci/mmol American Radiolabeled Chemicals) were also used for transport experiments. […] Cpm values of each experiment were normalized with respect to the determined upper plateau value, i.e., the fitted upper plateau value corresponds to 100%. The arithmetic average of three independent experiments was calculated. […] His-tagged transporters were detected using an anti-His5 (Qiagen, catalogue number 34660, primary antibody) at a dilution of 1:3,000 and a goat anti-mouse IgG (H + L) HRP conjugate antibody (Biorad, catalogue number 172-1011, secondary antibody) at a dilution of 1:2,500.

MCT1 = target: MCT1; set-up: method as in Ovens et al., 2010, Biochem. J. 425:523-30; settings: reported value, ref Ovens et al., 2010, Biochem. J. 425:523-30; cited from earlier work
[2] = tested on: vector-transformed E. coli JA202; assay: Uptake of radioligands into vector-transformed bacteria; assay type: cell-based; settings: 0.1 µCi radiolabeled monocarboxylate; vector-transformed bacteria
Protocol: The cultures were grown at 37 °C and 180 r.p.m. in an incubator shaker (Multitron, Infors HT). Protein expression was induced at OD600 ~0.5 by addition of IPTG to a final concentration of 0.25 mM. After 4 h, bacteria were pelleted (5,200 × g, 10 min, room temperature) and resuspended in uptake buffer (20 mM Bis-Tris propane-HCl (pH 6.7), 250 mM KCl) to a bacteria density of OD600 12. […] Furthermore, [3-3 H] propionic acid sodium salt ([^3H]propionate, American Radiolabeled Chemicals, specific activity 30 Ci/mmol), n-[2,3-3 H] butyric acid sodium salt ([^3H]butyrate, American Radiolabeled Chemicals, specific activity 120 Ci/mmol), and [1–14 C] pyruvic acid sodium salt ([^14C]pyruvate, specific activity 0.055 Ci/mmol American Radiolabeled Chemicals) were also used for transport experiments. […] Uptake experiments were performed in 2 ml reaction tubes (Eppendorf) at 30 °C under agitation (1,000 r.p.m., Thermomixer compact, Eppendorf). […] Bacteria were immediately pelleted by centrifugation (21,000 × g, 4 min, room temperature) and washed two times with 900 μl stop buffer. Finally, bacteria were lyzed in 50 μl 5% (w/v) sodium dodecylsulfate and transferred into a white 96-well plate (Optiplate, PerkinElmer). 150 µl of scintillation cocktail (MicroScint 40, PerkinElmer) were added before measuring each reaction for 2 min with a scintillation counter (TopCount NXT, PerkinElmer). For data analysis, the signal of the empty vector was subtracted from the transporter signal. […] Cpm values of each experiment were normalized with respect to the determined upper plateau value, i.e., the fitted upper plateau value corresponds to 100%. The arithmetic average of three independent experiments was calculated. Three independent and normalized pH-dependence curves were then averaged. For data analysis Prism6 (GraphPad Software) was used. The expression of SfMCT variants in E. coli JA202 (MC4100 glcA::cat lldP::kan)[15] was verified by Western blotting. Equal amounts of bacteria expressing SfMCT variants were loaded on 14% SDS/polyacrylamide gels. His-tagged transporters were detected using an anti-His5 (Qiagen, catalogue number 34660, primary antibody) at a dilution of 1:3,000 and a goat anti-mouse IgG (H + L) HRP conjugate antibody (Biorad, catalogue number 172-1011, secondary antibody) at a dilution of 1:2,500.

SfMCT [3] = target: T1, SfMCT; assay: Uptake of [14C]L-lactate and other radiolabeled monocarboxylates into SfMCT expressing E. coli JA202; assay type: cell-based; settings: for Uptake of radioligand by SfMCT (cpm): 0.1 µCi radiolabeled monocarboxylate, SfMCT-overexpressing bacteria; for transport by SfMCT (in words): uptake experiment using radiolabeled compound
Protocol: as §1

[4] = substrate: C[C@H](O)C(=O)O; assay: cells, lysate or membranes; assay type: cell-based, Syntrophobacter fumaroxidans; settings: other: SfMCT-mediated [14C]L-lactate uptake; average of three independent saturation experiments

T2 sequence (A0LNN5 whole entry F335A): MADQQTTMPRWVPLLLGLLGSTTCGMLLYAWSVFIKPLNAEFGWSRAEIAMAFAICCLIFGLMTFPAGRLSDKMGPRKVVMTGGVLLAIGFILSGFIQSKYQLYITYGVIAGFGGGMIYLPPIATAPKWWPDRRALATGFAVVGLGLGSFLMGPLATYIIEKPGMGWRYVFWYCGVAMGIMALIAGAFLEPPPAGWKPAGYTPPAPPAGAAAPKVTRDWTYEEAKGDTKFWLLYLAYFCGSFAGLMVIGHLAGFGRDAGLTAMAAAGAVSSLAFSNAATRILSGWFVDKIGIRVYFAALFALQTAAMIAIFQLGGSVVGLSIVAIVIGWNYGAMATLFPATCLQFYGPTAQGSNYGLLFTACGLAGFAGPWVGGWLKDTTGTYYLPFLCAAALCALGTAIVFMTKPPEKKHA

C[C@@H](O)CC(=O)O [3-HBA, (R)-3-hydroxybutyrate]
Relative uptake of [14C]L-lactate (in %) (SfMCT [1]): 93.0096% | reduction of [14C]L-lactate uptake (SfMCT [1]): 5–14%

CC(=O)CC(=O)O [ACAC, acetoacetate]
Relative uptake of [14C]L-lactate (in %) (SfMCT [1]): 86.3974% | Relative uptake of [14C]L-lactate (in %) (SfMCT [1]; listed as acetoacetate): 86% | reduction of [14C]L-lactate uptake (SfMCT [1]): 5–14% | Relative uptake of [14C]L-lactate (in %) (SfMCT-F335A): 43.19% | Relative uptake of [14C]L-lactate (in %) (SfMCT-F335A; listed as acetoacetate): 43%

Cc1n[nH]c(C)c1Cc1sc2c(c1C(=O)N1C[C@H](O)CO1)c(=O)n(C)c(=O)n2CC(C)C [AR-C155858, reference compound]
[14C]L-lactate uptake (SfMCT [1]; 100 µM AR-C155858, control: 100%): 103% | Ki (MCT1): ~2 nM

N#CC(C#N)=NNc1cccc(Cl)c1 [CCCP, carbonyl cyanide 3-chlorophenylhydrazone, reference compound]
effect on uptake of [14C]L-lactate (in words) (SfMCT [1]; 20 µM CCCP): completely abolished

C[C@@H](N)C(=O)O [D-alanine]
competition with [14C]L-lactate uptake (in words) (SfMCT [1]): absence of any competition

C[C@H](N)C(=O)O [L-alanine]
competition with [14C]L-lactate uptake (in words) (SfMCT [1]): absence of any competition

CC(=O)O [acetate]
Relative uptake of [14C]L-lactate (in %) (SfMCT [1]): 90.2435%

CCCC(=O)O [butyrate]
competition with [14C]L-lactate uptake (in words) (SfMCT [1]): significantly reduced | Uptake of radioligand by vector (cpm) [2]: 197.333 cpm | Uptake of radioligand by SfMCT (cpm) (SfMCT [3]): 160.333 cpm | transport by SfMCT (in words) (SfMCT [3]): not transported; also recorded: without being transported

O=C(O)CC(O)(CC(=O)O)C(=O)O [citrate]
reduction of [14C]L-lactate uptake (SfMCT [1]): 5–14%

O=CO [formate]
Relative uptake of [14C]L-lactate (in %) (SfMCT [1]): 96.2179%

O=C(O)/C=C/C(=O)O [fumarate]
Relative uptake of [14C]L-lactate (in %) (SfMCT [1]): 61.3393%

O=C(O)CC(=O)O [malonate]
Relative uptake of [14C]L-lactate (in %) (SfMCT [1]): 91.3566% | reduction of [14C]L-lactate uptake (SfMCT [1]): 5–14%

O=C(O)C(=O)O [oxalate]
Relative uptake of [14C]L-lactate (in %) (SfMCT [1]): 95.2988% | reduction of [14C]L-lactate uptake (SfMCT [1]): 5–14%

CCC(=O)O [propionate]
Relative uptake of [14C]L-lactate (in %) (SfMCT [1]): 58.2752% | competition with [14C]L-lactate uptake (in words) (SfMCT [1]): significantly reduced | Uptake of radioligand by vector (cpm) [2]: 198.333 cpm | Uptake of radioligand by SfMCT (cpm) (SfMCT [3]): 90.6667 cpm | transport by SfMCT (in words) (SfMCT [3]): not transported; also recorded: without being transported

CC(=O)C(=O)O [pyruvate]
Uptake of radioligand by vector (cpm) [2]: 2551.22 cpm | Uptake of radioligand by SfMCT (cpm) (SfMCT [3]): 2342.67 cpm | transport by SfMCT (in words) (SfMCT [3]): not transported; also recorded: does not transport

O=C(O)CCC(=O)O [succinate]
Relative uptake of [14C]L-lactate (in %) (SfMCT [1]): 57.9601%

CC(C)[C@@H]1NC(=O)[C@H](C)OC(=O)[C@@H](C(C)C)NC(=O)[C@@H](C(C)C)OC(=O)[C@H](C(C)C)NC(=O)[C@H](C)OC(=O)[C@@H](C(C)C)NC(=O)[C@@H](C(C)C)OC(=O)[C@H](C(C)C)NC(=O)[C@H](C)OC(=O)[C@@H](C(C)C)NC(=O)[C@@H](C(C)C)OC1=O [valinomycin, reference compound]
effect on transport of [14C]L-lactate (in words) (SfMCT [1]; 20 µM valinomycin): no effect

B1: SfMCT (Syntrophobacter fumaroxidans MPOB) (protein)
chain: T1 sequence (A0LNN5 1-412)
notes: expressed in transfected cells; host or cells: E. coli JA202 (MC4100 glcA::cat lldP::kan), plasmid pEXT20-SfMCT-3C-10His
Km [4]: 233 ± 22 µM

Reference: PMC6573034 (Nature Communications, 2019)
